Assay [1] relates to Heme. The assay can be described thus: Binding affinity to heme assessed as equilibrium binding constant by UV-visible spectrophotometry.
For assay [2], the system named is Heme. As to the kind of experiment: Inhibition of heme-mediated bovine serum albumin degradation at 100 uM after 1 hr by gel electrophoresis in presence of H2O2 at pH 7.4.
Assay [3] relates to Heme. As to the kind of experiment: Inhibition of heme-mediated bovine serum albumin oxidation assessed as protein carbonyl formation after 1 hr in presence of H2O2 at pH 7.4.

Structures are written as SMILES. pIC50: −log10 of the molar value. The source made the active and inactive calls. No cut-off for these calls is given here.

`O=c1c2ccccc2[nH]c2cc(Cl)ccc12`: the Ka in assay [1] came out at 4.6 ×10⁴ /M. For the same compound, the inhibition result in assay [2] was “Active”. Further, the pIC50 in assay [3] was 4.44.
The matching figures for `COc1cc2c(c(O)c1OC)c(=O)c1ccccc1n2C` [ARBORININE]: 3.9 ×10⁴ /M, “Active” and 4.38.
As to `O=c1c2ccccc2[nH]c2ccccc12` [ACRIDONE], the Ka in assay [1] was determined as 2.4 ×10⁴ /M. In assay [3], the pIC50 was 4.26.
For the compound `O=c1c2ccccc2[nH]c2cc([N+](=O)[O-])ccc12`, in assay [1], the Ka came out at 4.3 ×10⁴ /M. In assay [2], the inhibition entry is “Active”. The pIC50 in assay [3] was 4.39.
As to `O=C(O)c1cccc2c(=O)c3ccccc3[nH]c12`, the Ka in assay [1] was 3.8 ×10⁴ /M. Moreover, in assay [3], the pIC50 is 4.37.
As to `COc1ccc2[nH]c3ccccc3c(=O)c2c1`, the Ka in assay [1] was determined as 2.7 ×10⁴ /M. Moreover, the pIC50 in assay [3] is 4.36.

The term pIC50 denotes the negative decadic logarithm of the IC50, by convention in mol/L.

For the origin of these results see ChEMBL document CHEMBL1799952, “Synthesis of novel heme-interacting acridone derivatives to prevent free heme-mediated protein oxidation and degradation” (Bioorg Med Chem Lett, 2011).
